In ChEMBL document CHEMBL3885861, “Open TG-GATES”:

Organism: Rattus norvegicus
Experiment: Open TG-GATES - Regimen: Daily Repeat
Assay type: toxicity, organism-based, Sprague-Dawley
Design: regimen Daily Repeat, gender Male, age 6 weeks
Conditions: in vivo, po, route gavage; for APTT / Bas / Eos / Fbg / Hb / Ht / Lym / MCH / MCHC / MCV / Mono / Neu / PT / Plat / RBC / Ret / WBC: tissue Blood; for KIDNEY_TOTAL: tissue Kidney; for LIVER: tissue Liver; for A/G / ALP / ALT / AST / BUN / CRE / Ca / Cl / DBIL / GLC / IP / K / LDH / Na / PL / RALB / TBIL / TC / TG / TP / gamma-GTP: tissue Plasma
[1] = 0 mg/kg, 72 h, dose level Control, time 3 day
[2] = 0 mg/kg, […], dose level Control, time 7 day
[3] = 0 mg/kg, […], dose level Control, time 14 day
[4] = 0 mg/kg, […], dose level Control, time 28 day
[5] = 2 mg/kg, 72 h, dose level Low, time 3 day
[6] = 2 mg/kg, […], dose level Low, time 7 day
[7] = 2 mg/kg, […], dose level Low, time 14 day
[8] = 2 mg/kg, […], dose level Low, time 28 day

## CN(CCOc1ccc(CC2SC(=O)NC2=O)cc1)c1ccccn1.O=C(O)/C=C\C(=O)O (stereo not drawn) [ROSIGLITAZONE MALEATE]
[1]
  TERMINAL_BW: 242.8 g
  APTT: 15.5 s
  Bas: 0%
  Eos: 1.2%
  Fbg: 236.8 mg/dL
  Hb: 13 g/dL
  Ht: 39.2%
  Lym: 76.6%
  MCH: 21.1 pg
  MCHC: 33%
  MCV: 63.9 fL
  Mono: 5.2%
  Neu: 17.4%
  PT: 11.5 s
  Plat: 136 x10_4/uL
  RBC: 615.6 x10_4/ul
  Ret: 6.6%
  WBC: 98 x10_2/uL
  KIDNEY_TOTAL: 0.8 g
  LIVER: 12.6 g
  A/G: 2.2
  ALP: 1243.6 IU/L
  ALT: 35.6 IU/L
  AST: 62.6 IU/L
  BUN: 14.8 mg/dL
  CRE: 0.2 mg/dL
  Ca: 11.7 mg/dL
  Cl: 104.2 meq/L
  DBIL: 0.014 mg/dL
  GLC: 197.6 mg/dL
  IP: 6.9 mg/dL
  K: 4.7 meq/L
  LDH: 96.2 IU/L
  Na: 140.4 meq/L
  PL: 154.8 mg/dL
  RALB: 3.9 g/dL
  TBIL: 0.04 mg/dL
  TC: 83.4 mg/dL
  TG: 105.8 mg/dL
  TP: 5.8 g/dL
  gamma-GTP: 0.2 IU/L
[2]
  TERMINAL_BW: 274.1 g
  APTT: 16.1 s
  Bas: 0%
  Eos: 1%
  Fbg: 242.4 mg/dL
  Hb: 13.4 g/dL
  Ht: 40.5%
  Lym: 82%
  MCH: 20.8 pg
  MCHC: 33%
  MCV: 63 fL
  Mono: 4.4%
  Neu: 12.8%
  PT: 11.7 s
  Plat: 134.6 x10_4/uL
  RBC: 643.8 x10_4/ul
  Ret: 4.6%
  WBC: 98.6 x10_2/uL
  KIDNEY_TOTAL: 0.7 g
  LIVER: 12.9 g
  A/G: 2
  ALP: 1306.8 IU/L
  ALT: 33.2 IU/L
  AST: 58.8 IU/L
  BUN: 18.2 mg/dL
  CRE: 0.5 mg/dL
  Ca: 19.5 mg/dL
  Cl: 104.8 meq/L
  DBIL: 0.01 mg/dL
  GLC: 181.4 mg/dL
  IP: 7.1 mg/dL
  K: 4.5 meq/L
  LDH: 79 IU/L
  Na: 140 meq/L
  PL: 148.6 mg/dL
  RALB: 3.8 g/dL
  TBIL: 0.028 mg/dL
  TC: 76.6 mg/dL
  TG: 138.8 mg/dL
  TP: 5.7 g/dL
  gamma-GTP: 0.2 IU/L
[3]
  TERMINAL_BW: 332.1 g
  APTT: 15.7 s
  Bas: 0%
  Eos: 1%
  Fbg: 247.4 mg/dL
  Hb: 14 g/dL
  Ht: 42.3%
  Lym: 74.4%
  MCH: 20.6 pg
  MCHC: 33%
  MCV: 62.2 fL
  Mono: 6%
  Neu: 18.6%
  PT: 11.5 s
  Plat: 126.2 x10_4/uL
  RBC: 680.2 x10_4/ul
  Ret: 3.6%
  WBC: 124.2 x10_2/uL
  KIDNEY_TOTAL: 0.9 g
  LIVER: 15.7 g
  A/G: 2.1
  ALP: 1411 IU/L
  ALT: 32.8 IU/L
  AST: 62.4 IU/L
  BUN: 19 mg/dL
  CRE: 0.4 mg/dL
  Ca: 11.1 mg/dL
  Cl: 106 meq/L
  DBIL: 0.01 mg/dL
  GLC: 186.4 mg/dL
  IP: 7.2 mg/dL
  K: 4.5 meq/L
  LDH: 65 IU/L
  Na: 143 meq/L
  PL: 159.4 mg/dL
  RALB: 3.9 g/dL
  TBIL: 0.036 mg/dL
  TC: 76.4 mg/dL
  TG: 186.4 mg/dL
  TP: 5.8 g/dL
  gamma-GTP: 1 IU/L
[4]
  TERMINAL_BW: 412.9 g
  APTT: 16 s
  Bas: 0%
  Eos: 1%
  Fbg: 242.4 mg/dL
  Hb: 14.6 g/dL
  Ht: 44%
  Lym: 75.2%
  MCH: 19.5 pg
  MCHC: 33.2%
  MCV: 58.9 fL
  Mono: 7.6%
  Neu: 16.4%
  PT: 11.7 s
  Plat: 120.2 x10_4/uL
  RBC: 747.6 x10_4/ul
  Ret: 2.6%
  WBC: 114.8 x10_2/uL
  KIDNEY_TOTAL: 0.9 g
  LIVER: 17.1 g
  A/G: 1.9
  ALP: 1035.6 IU/L
  ALT: 29.2 IU/L
  AST: 55 IU/L
  BUN: 18.4 mg/dL
  CRE: 0.4 mg/dL
  Ca: 10.7 mg/dL
  Cl: 105 meq/L
  DBIL: 0.012 mg/dL
  GLC: 183 mg/dL
  IP: 6.1 mg/dL
  K: 4.4 meq/L
  LDH: 68.8 IU/L
  Na: 139.8 meq/L
  PL: 144.8 mg/dL
  RALB: 3.9 g/dL
  TBIL: 0.036 mg/dL
  TC: 73.2 mg/dL
  TG: 162 mg/dL
  TP: 5.9 g/dL
  gamma-GTP: 0.4 IU/L
[5]
  TERMINAL_BW: 243.4 g
  APTT: 15.7 s
  Bas: 0%
  Eos: 1%
  Fbg: 233.4 mg/dL
  Hb: 13.2 g/dL
  Ht: 40.2%
  Lym: 73%
  MCH: 20.7 pg
  MCHC: 32.7%
  MCV: 63.4 fL
  Mono: 7.4%
  Neu: 18.8%
  PT: 11.7 s
  Plat: 133 x10_4/uL
  RBC: 634.8 x10_4/ul
  Ret: 6.7%
  WBC: 88.6 x10_2/uL
  KIDNEY_TOTAL: 0.7 g
  LIVER: 12.2 g
  A/G: 2.1
  ALP: 1105.8 IU/L
  ALT: 36 IU/L
  AST: 64.2 IU/L
  BUN: 15.6 mg/dL
  CRE: 0.2 mg/dL
  Ca: 11.5 mg/dL
  Cl: 104.4 meq/L
  DBIL: 0.01 mg/dL
  GLC: 189.4 mg/dL
  IP: 8 mg/dL
  K: 4.6 meq/L
  LDH: 128.2 IU/L
  Na: 140.8 meq/L
  PL: 152.2 mg/dL
  RALB: 3.9 g/dL
  TBIL: 0.034 mg/dL
  TC: 83 mg/dL
  TG: 88.2 mg/dL
  TP: 5.8 g/dL
  gamma-GTP: 0 IU/L
[6]
  TERMINAL_BW: 271.5 g
  APTT: 16.1 s
  Bas: 0%
  Eos: 1%
  Fbg: 246.6 mg/dL
  Hb: 13.3 g/dL
  Ht: 40.4%
  Lym: 77.6%
  MCH: 20.9 pg
  MCHC: 32.9%
  MCV: 63.5 fL
  Mono: 5.2%
  Neu: 16.2%
  PT: 11.5 s
  Plat: 134.4 x10_4/uL
  RBC: 636.8 x10_4/ul
  Ret: 5.1%
  WBC: 102.8 x10_2/uL
  KIDNEY_TOTAL: 0.7 g
  LIVER: 12.8 g
  A/G: 2
  ALP: 1242 IU/L
  ALT: 32.4 IU/L
  AST: 62.2 IU/L
  BUN: 19 mg/dL
  CRE: 0.5 mg/dL
  Ca: 11.4 mg/dL
  Cl: 104.6 meq/L
  DBIL: 0.012 mg/dL
  GLC: 183.4 mg/dL
  IP: 7.2 mg/dL
  K: 4.3 meq/L
  LDH: 118 IU/L
  Na: 140.8 meq/L
  PL: 144.6 mg/dL
  RALB: 3.8 g/dL
  TBIL: 0.034 mg/dL
  TC: 73.6 mg/dL
  TG: 100.6 mg/dL
  TP: 5.7 g/dL
  gamma-GTP: 0.6 IU/L
[7]
  TERMINAL_BW: 343.6 g
  APTT: 15.3 s
  Bas: 0%
  Eos: 0.8%
  Fbg: 233.4 mg/dL
  Hb: 13.4 g/dL
  Ht: 40.9%
  Lym: 77.6%
  MCH: 20.2 pg
  MCHC: 32.8%
  MCV: 61.5 fL
  Mono: 5.4%
  Neu: 16.2%
  PT: 11.7 s
  Plat: 116.6 x10_4/uL
  RBC: 666 x10_4/ul
  Ret: 3.8%
  WBC: 109.2 x10_2/uL
  KIDNEY_TOTAL: 0.8 g
  LIVER: 15.1 g
  A/G: 2.1
  ALP: 1340.2 IU/L
  ALT: 35.2 IU/L
  AST: 64.8 IU/L
  BUN: 18 mg/dL
  CRE: 0.4 mg/dL
  Ca: 11.2 mg/dL
  Cl: 105.6 meq/L
  DBIL: 0.01 mg/dL
  GLC: 189.8 mg/dL
  IP: 7.8 mg/dL
  K: 4.4 meq/L
  LDH: 92.2 IU/L
  Na: 143.2 meq/L
  PL: 142.2 mg/dL
  RALB: 3.8 g/dL
  TBIL: 0.032 mg/dL
  TC: 70.4 mg/dL
  TG: 110 mg/dL
  TP: 5.7 g/dL
  gamma-GTP: 1 IU/L
[8]
  TERMINAL_BW: 425.3 g
  APTT: 15.7 s
  Bas: 0%
  Eos: 1%
  Fbg: 236.8 mg/dL
  Hb: 14.4 g/dL
  Ht: 44%
  Lym: 83.2%
  MCH: 18.7 pg
  MCHC: 32.7%
  MCV: 57.2 fL
  Mono: 3.8%
  Neu: 12%
  PT: 11.9 s
  Plat: 108.5 x10_4/uL
  RBC: 769.2 x10_4/ul
  Ret: 2.2%
  WBC: 93.8 x10_2/uL
  KIDNEY_TOTAL: 0.7 g
  LIVER: 16.8 g
  A/G: 2
  ALP: 1172.5 IU/L
  ALT: 34 IU/L
  AST: 62.8 IU/L
  BUN: 18.2 mg/dL
  CRE: 0.4 mg/dL
  Ca: 10.6 mg/dL
  Cl: 105 meq/L
  DBIL: 0.01 mg/dL
  GLC: 185.2 mg/dL
  IP: 6.4 mg/dL
  K: 4.2 meq/L
  LDH: 90.2 IU/L
  Na: 141.2 meq/L
  PL: 119 mg/dL
  RALB: 3.9 g/dL
  TBIL: 0.035 mg/dL
  TC: 54.8 mg/dL
  TG: 126.5 mg/dL
  TP: 5.9 g/dL
  gamma-GTP: 0 IU/L
